According to patent US9694016B2 (Novartis AG, priority 2013, dated 2017):
Where two headings read alike, the source gives them in different places.

Target: b-Raf (V600E) (Homo sapiens (Human), UniProt P15056, V600E)
Settings: read-out: b-Raf IC-50, AlphaScreen
[1] = 60 min pre-incubation, 3 hours reaction
[2] = 60 min pre-incubation, reaction 3 hours at room temperature

Chain of b-Raf (V600E) (P15056 whole entry V600E): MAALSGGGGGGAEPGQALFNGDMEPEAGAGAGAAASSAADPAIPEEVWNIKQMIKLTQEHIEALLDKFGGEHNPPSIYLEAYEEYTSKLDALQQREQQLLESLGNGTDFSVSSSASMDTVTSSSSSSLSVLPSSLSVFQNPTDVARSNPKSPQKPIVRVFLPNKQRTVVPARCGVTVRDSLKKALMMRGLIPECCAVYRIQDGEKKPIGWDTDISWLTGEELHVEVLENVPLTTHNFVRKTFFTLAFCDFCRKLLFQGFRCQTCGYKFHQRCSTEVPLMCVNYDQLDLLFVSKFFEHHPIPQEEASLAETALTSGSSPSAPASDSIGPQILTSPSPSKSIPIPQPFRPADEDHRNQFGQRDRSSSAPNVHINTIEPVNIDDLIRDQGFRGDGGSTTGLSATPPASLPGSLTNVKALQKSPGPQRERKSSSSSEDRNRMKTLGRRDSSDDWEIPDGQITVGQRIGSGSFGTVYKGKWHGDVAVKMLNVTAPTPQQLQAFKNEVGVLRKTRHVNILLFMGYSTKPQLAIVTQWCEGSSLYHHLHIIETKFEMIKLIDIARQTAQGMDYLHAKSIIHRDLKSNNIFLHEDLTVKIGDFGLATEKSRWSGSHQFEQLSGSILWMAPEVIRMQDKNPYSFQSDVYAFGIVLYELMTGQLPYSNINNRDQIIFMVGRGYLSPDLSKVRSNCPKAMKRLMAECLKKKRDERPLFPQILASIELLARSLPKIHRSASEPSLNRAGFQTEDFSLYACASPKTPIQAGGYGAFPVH
Source text: Sf9 cells co-expressing both proteins were lysed and subjected to immobilized nickel chromatography and eluted with Imidazole. A second column (StrepII binding column) was used and eluted with desthiobiotin. Protein Tags were removed using Prescission enzyme and the protein was further purified using a flowthrough step to remove tags.
Full length MEK1 with an inactivating K97R ATP binding site mutation is utilized as a RAF substrate. The MEK1 cDNA was subcloned with an N-terminal (his)6 tag into a vector for E. Coli expression. The MEK1 substrate was purified from E. Coli lysate by nickel affinity chromatography followed by anion exchange. The final MEK1 preparation was biotinylated (Pierce EZ-Link Sulfo-NHS-LC-Biotin) and concentrated.
Assay buffer: 50 mM Tris, pH 7.5, 15 mM MgCl2, 0.01% Bovine Serum Albumin (BSA), 1 mM dithiothreitol (DTT) Stop buffer: 60 mM ethylenediaminetetraacetic acid (EDTA), 0.01% Tween® 20
biotinylated Mek, kinase dead
384 well low volume assay plates (White Greiner® plates)
biotinylated Mek, Kinase dead approximately 10 nM
Pre-incubation time with compounds 60 minutes at room temperature
Reaction time 1 or 3 hours at room temperature
The plate was incubated for 60 minutes at room temperature.
The additions were carried out under dark conditions to protect the detection beads from light. A lid was placed on top of the plate and incubated for 1 hour at room temperature, then the luminescence was read on a PerkinElmer Envision instrument.

SMILES	IC50 [1] [nM]	IC50 (Table 2, 3 hours reaction) [nM]	other results
Cc1ccc(NC(=O)c2ccnc(C(F)(F)F)c2)cc1-c1cc(N2CCOCC2)nc(N2CC(O)C2)n1 [Example 773, N-(3-(2-(3-hydroxyazetidin-1-yl)-6-morpholinopyrimidin-4-yl)-4-methylphenyl)-2-(trifluoromethyl)isonicotinamide]	1.7	–	–
COc1ccc(C(=O)Nc2ccc(C)c(-c3cc(N4CCOCC4)c(=O)n(C)c3)c2)cc1C(F)(F)F [Example 339, 4-methoxy-N-(4-methyl-3-(1-methyl-5-morpholino-6-oxo-1,6-dihydropyridin-3-yl)phenyl)-3-(trifluoromethyl)benzamide]	–	1.8	–
CCn1cc(C(=O)Nc2cnc(C)c(-c3cc(N4CCOCC4)nc(N4CC(O)C4)c3)c2)cc(C(F)(F)F)c1=O [Example 1086, 1-ethyl-N-(2′-(3-hydroxyazetidin-1-yl)-2-methyl-6′-morpholino-[3,4′-bipyridin]-5-yl)-6-oxo-5-(trifluoromethyl)-1,6-dihydropyridine-3-carboxamide]	–	–	IC50 [2]: 20.7 nM
Cn1cc(-c2cc(NC(=O)c3ccnc(C(F)(F)F)c3)ccc2Cl)cc(N2CCOCC2)c1=O [Example 413, N-(4-chloro-3-(1-methyl-5-morpholino-6-oxo-1,6-dihydropyridin-3-yl)phenyl)-2-(trifluoromethyl)isonicotinamide]	–	0.4	–
Cc1ncc(NC(=O)c2ccnc(S(C)(=O)=O)c2)cc1-c1cc(N2CCOCC2)c(OC2CCOCC2)nn1 [Example 632, N-(6-methyl-5-(5-morpholino-6-((tetrahydro-2H-pyran-4-yl)oxy)pyridazin-3-yl)pyridin-3-yl)-2-(methylsulfonyl)isonicotinamide]	7.5	–	–
Cc1ccc(NC(=O)c2cccc(C(F)(F)F)c2)cc1-c1cc(NCC(O)C(F)(F)F)nc(N2CCOCC2)c1 (centres unmarked) [Example 1063, N-(4-methyl-3-(2-morpholino-6-((3,3,3-trifluoro-2-hydroxypropyl)amino)pyridin-4-yl)phenyl)-3-(trifluoromethyl)benzamide]	–	–	IC50 [2]: 1.48 nM
Cc1ncc(NC(=O)c2ccnc(C(F)(F)F)c2)cc1-c1cc(N2CCOCC2)n(C)c(=O)c1 [Example 500]	5.6	–	–
Cc1ncc(NC(=O)c2ccnc(C(C)(F)F)c2)cc1-c1cc(N2CCOCC2)c(=O)n(C)n1 [Example 678, 2-(1,1-difluoroethyl)-N-(6-methyl-5-(1-methyl-5-morpholino-6-oxo-1,6-dihydropyridazin-3-yl)pyridin-3-yl)isonicotinamide]	6.4	–	–
Cc1ncc(NC(=O)c2ccnc(C(C)(C)C#N)c2)cc1-c1cc(N2CCOCC2)nc(N2CC(C)(O)C2)c1 [Example 1108, 2-(2-cyanopropan-2-yl)-N-(2′-(3-hydroxy-3-methylazetidin-1-yl)-2-methyl-6′-morpholino-[3,4′-bipyridin]-5-yl)isonicotinamide]	–	–	IC50 [2]: 20.4 nM
Cc1ccc(NC(=O)c2ccnc(C(C)(C)F)c2)cc1-c1cc(N2CCOCC2)c(OC(C)C)nn1 [Example 595, 2-(2-fluoropropan-2-yl)-N-(3-(6-isopropoxy-5-morpholinopyridazin-3-yl)-4-methylphenyl)isonicotinamide]	0.6	–	–
Cc1ncc(NC(=O)c2ccnc(C(C)(F)F)c2)cc1-c1cnc(OC2CCOCC2)c(N2CCOCC2)c1 [Example 938, 2-(1,1-difluoroethyl)-N-(2-methyl-5′-morpholino-6′-((tetrahydro-2H-pyran-4-yl)oxy)-[3,3′-bipyridin]-5-yl)isonicotinamide]	–	–	IC50 [2]: 2.36 nM
Cc1ccc(NC(=O)c2ccnc(C(C)(C)F)c2)cc1-c1cc(N2CCOCC2)c(=O)n(C)c1 [Example 355, 2-(2-fluoropropan-2-yl)-N-(4-methyl-3-(1-methyl-5-morpholino-6-oxo-1,6-dihydropyridin-3-yl)phenyl)isonicotinamide]	–	2.5	–
CNCCN(C)c1cc(C(=O)Nc2ccc(C)c(-c3cc(N4CCOCC4)c(=O)n(C)c3)c2)ccn1 [Example 457, 2-(methyl(2-(methylamino)ethyl)amino)-N-(4-methyl-3-(1-methyl-5-morpholino-6-oxo-1,6-dihydropyridin-3-yl)phenyl)isonicotinamide]	30.5	–	–
CCOc1cc(C(=O)Nc2cnc(C)c(-c3cc(N4CCOCC4)c(=O)n(C)c3)c2)ccc1F [Example 395, N-(1′,2-dimethyl-5′-morpholino-6′-oxo-1′,6′-dihydro-[3,3′-bipyridin]-5-yl)-3-ethoxy-4-fluorobenzamide]	–	9.8	–
COc1nnc(-c2cc(NC(=O)c3ccnc(C(C)(C)C#N)c3)ccc2C)cc1N1CCOCC1 [Example 558, 2-(2-cyanopropan-2-yl)-N-(3-(6-methoxy-5-morpholinopyridazin-3-yl)-4-methylphenyl)isonicotinamide]	2.1	–	–
Cc1ccc(NC(=O)c2ccnc(C(C)(C)C#N)c2)cc1-c1nc2c(c(N3CCOCC3)n1)CCNC2 [Example 865, 2-(2-cyanopropan-2-yl)-N-(4-methyl-3-(4-morpholino-5,6,7,8-tetrahydropyrido[3,4-d]pyrimidin-2-yl)phenyl)isonicotinamide]	–	–	IC50 [2]: 3700 nM

SMILES	IC50 [1] [nM]	IC50 (Table 2, 3 hours reaction) [nM]	other results
Cc1ccc(NC(=O)c2cccc(C3(C#N)CC3)c2Cl)cc1-c1cc(N2CCOCC2)c(=O)n(C)c1 [Example 346, 2-chloro-3-(1-cyanocyclopropyl)-N-(4-methyl-3-(1-methyl-5-morpholino-6-oxo-1,6-dihydropyridin-3-yl)phenyl)benzamide]	–	8.7	–
CCNc1nc(-c2cc(NC(=O)c3cccc(C(C)(C)C#N)c3)cnc2C)cc(N2CCOCC2)n1 [Example 726, 3-(2-cyanopropan-2-yl)-N-(5-(2-(ethylamino)-6-morpholinopyrimidin-4-yl)-6-methylpyridin-3-yl)benzamide]	9	–	–
Cc1ccc(NC(=O)c2ccnc(C(C)(C)C#N)c2)cc1-c1cc(N2CCOCC2(C)C)c(=O)n(C)n1 [Example 671, 2-(2-cyanopropan-2-yl)-N-(3-(5-(3,3-dimethylmorpholino)-1-methyl-6-oxo-1,6-dihydropyridazin-3-yl)-4-methylphenyl)isonicotinamide]	25.5	–	–
Cc1ncc(NC(=O)c2ccnc(C(C)(F)F)c2)cc1-c1cnc(OC(F)F)c(N2CCOCC2)c1 [Example 980, 2-(1,1-difluoroethyl)-N-(6′-(difluoromethoxy)-2-methyl-5′-morpholino-[3,3′-bipyridin]-5-yl)isonicotinamide]	–	–	IC50 [2]: 1.99 nM
CCC(F)(F)c1cc(C(=O)Nc2ccc(C)c(-c3cc(N4CCOCC4)c(OCCO)nn3)c2)ccn1 [Example 589, 2-(1,1-difluoropropyl)-N-(3-(6-(2-hydroxyethoxy)-5-morpholinopyridazin-3-yl)-4-methylphenyl)isonicotinamide]	1.5	–	–
Cc1ccc(NC(=O)c2cc(CN(C)C)cc(C(F)(F)F)c2)cc1-c1cc(N2CCOCC2)c(=O)n(C)n1 [Example 661, 3-((dimethylamino)methyl)-N-(4-methyl-3-(1-methyl-5-morpholino-6-oxo-1,6-dihydropyridazin-3-yl)phenyl)-5-(trifluoromethyl)benzamide]	4.3	–	–
Cc1ccc(NC(=O)c2cccc(C(F)(F)F)c2)cc1-c1cc(NC(=O)C(C)O)nc(N2CCOCC2)c1 (centres unmarked) [Example 1066, N-(3-(2-(2-hydroxypropanamido)-6-morpholinopyridin-4-yl)-4-methylphenyl)-3-(trifluoromethyl)benzamide]	–	–	IC50 [2]: 0.58 nM
Cc1ncc(NC(=O)c2cnnc(C(C)(C)C#N)c2)cc1-c1cncc(N2CCOCC2)c1 [Example 296, 6-(2-cyanopropan-2-yl)-N-(2-methyl-5′-morpholino-[3,3′-bipyridin]-5-yl)pyridazine-4-carboxamide]	–	24.7	–
Cc1ncc(NC(=O)c2ccnc(C(C)(C)C#N)c2)cc1-c1cc(N2CCOCC2)n2nccc2n1 [Example 791, 2-(2-cyanopropan-2-yl)-N-(6-methyl-5-(7-morpholinopyrazolo[1,5-a]pyrimidin-5-yl)pyridin-3-yl)isonicotinamide]	11.4	–	–
Cc1ncc(NC(=O)c2cccc(OC(C)C)c2)cc1-c1cc(N2CCOCC2)c(=O)n(C)c1 [Example 398, N-(1′,2-dimethyl-5′-morpholino-6′-oxo-1′,6′-dihydro-[3,3′-bipyridin]-5-yl)-3-isopropoxybenzamide]	–	8.4	–
Cc1ccc(NC(=O)c2cccc(C(C)(C)C#N)c2)cc1-c1cc(N2CCOCC2)c2nccn2n1 [Example 846, 3-(2-cyanopropan-2-yl)-N-(4-methyl-3-(8-morpholinoimidazo[1,2-b]pyridazin-6-yl)phenyl)benzamide]	0.6	–	–
CCOc1ncc(-c2cc(NC(=O)c3ccnc(C(F)F)c3)cnc2C)cc1N1CCOCC1 [Example 247, 2-(difluoromethyl)-N-(6′-ethoxy-2-methyl-5′-morpholino-[3,3′-bipyridin]-5-yl)isonicotinamide]	–	1.1	–
Cc1ncc(NC(=O)c2cnnc(C(F)(F)F)c2)cc1-c1cc(N2CCOCC2)c(OC2CCOCC2)nn1 [Example 631, N-(6-methyl-5-(5-morpholino-6-((tetrahydro-2H-pyran-4-yl)oxy)pyridazin-3-yl)pyridin-3-yl)-6-(trifluoromethyl)pyridazine-4-carboxamide]	2.7	–	–
Cc1ncc(NC(=O)c2cccc(C(F)(F)F)c2)cc1-c1cnc(OCCO)c(N2CCOCC2)c1 [Example 145, N-(6′-(2-hydroxyethoxy)-2-methyl-5′-morpholino-[3,3′-bipyridin]-5-yl)-3-(trifluoromethyl)benzamide]	–	3	–
Cc1ncc(NC(=O)c2ccnc(C(C)(C)F)c2)cc1-c1cnc(OC2CCOCC2)c(N2CCOCC2)c1 [Example 273, 2-(2-fluoropropan-2-yl)-N-(2-methyl-5′-morpholino-6′-((tetrahydro-2H-pyran-4-yl)oxy)-[3,3′-bipyridin]-5-yl)isonicotinamide]	–	2.7	–
CCOc1ncc(-c2cc(NC(=O)c3cccc(-c4nnco4)c3)ccc2C)cc1N1CCOCC1 [Example 230, N-(3-(6-ethoxy-5-morpholinopyridin-3-yl)-4-methylphenyl)-3-(1,3,4-oxadiazol-2-yl)benzamide]	–	1.4	–
